Data on one molecule can be found in paper PMC6934184, “Selective DNA-PKcs inhibition extends the therapeutic index of localized radiotherapy and chemotherapy” (The Journal of Clinical Investigation, 2019).

The assay has as its target T1, STK39 (STLK3) (Homo sapiens, UniProt Q9UEW8).
T1 construct: purchased Thermo Fisher Scientific (Life Technologies) SelectScreen
Briefly: SelectScreen LanthaScreen. The class given is binding. The conditions noted are these: read-out: % displacement. Put shortly:
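NU5455 was profiled across the SelectScreen Broad panel of kinase activity and binding assays. Z'LYTE reactions such as CSF1R ran at apparent Km ATP, while the Adapta CAMK1 assay used ATP listed as 10. Values are given as percent.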
For orientation: TR-FRET usually uses a lanthanide donor and a delayed reading to cut background.

For the molecule `CN(C(=O)CN1CCOCC1)c1ccc2sc3c(-c4cccc5c(=O)cc(N6CC7CCC(C6)O7)oc45)cccc3c2c1` [NU5455], the inhibition at 1 µM was 16.2%.
